According to ChEMBL document CHEMBL1147627, “Synthesis of cinnamic acids and related isosteres as potent and selective alpha v beta 3 receptor antagonists” (Bioorg Med Chem Lett, 2004):

Experiments:
[1] = target: Integrin alpha-V/beta-1 (Homo sapiens, UniProt P05556+P06756); experiment: Binding affinity towards alpha V-beta1 receptor expressed in HEK293 cells; format: cell-based
[2] = target: T1, Integrin alpha-V/beta-3 (Homo sapiens, UniProt P05106+P06756); experiment: Binding affinity towards alpha V-beta3 receptor expressed in HEK293 cells; format: cell-based
[3] = target: Integrin alpha-V/beta-5 (Homo sapiens, UniProt P06756+P18084); experiment: Binding affinity towards alpha V-beta5 receptor expressed in HEK293 cells; format: cell-based
[4] = target: Integrin alpha-IIb/beta-3 (Homo sapiens, UniProt P05106+P08514); experiment: Binding affinity towards alpha IIb/beta3 integrin by solid-phase receptor binding assay (SPRA); format: protein-complex assay
[5] = target: T1, Integrin alpha-V/beta-3; experiment: Binding affinity towards alpha V/beta3 receptor by solid-phase receptor binding assays (SPRA); format: protein-complex assay

Chain of Integrin alpha-V/beta-5 (P06756 31-889 limits assumed): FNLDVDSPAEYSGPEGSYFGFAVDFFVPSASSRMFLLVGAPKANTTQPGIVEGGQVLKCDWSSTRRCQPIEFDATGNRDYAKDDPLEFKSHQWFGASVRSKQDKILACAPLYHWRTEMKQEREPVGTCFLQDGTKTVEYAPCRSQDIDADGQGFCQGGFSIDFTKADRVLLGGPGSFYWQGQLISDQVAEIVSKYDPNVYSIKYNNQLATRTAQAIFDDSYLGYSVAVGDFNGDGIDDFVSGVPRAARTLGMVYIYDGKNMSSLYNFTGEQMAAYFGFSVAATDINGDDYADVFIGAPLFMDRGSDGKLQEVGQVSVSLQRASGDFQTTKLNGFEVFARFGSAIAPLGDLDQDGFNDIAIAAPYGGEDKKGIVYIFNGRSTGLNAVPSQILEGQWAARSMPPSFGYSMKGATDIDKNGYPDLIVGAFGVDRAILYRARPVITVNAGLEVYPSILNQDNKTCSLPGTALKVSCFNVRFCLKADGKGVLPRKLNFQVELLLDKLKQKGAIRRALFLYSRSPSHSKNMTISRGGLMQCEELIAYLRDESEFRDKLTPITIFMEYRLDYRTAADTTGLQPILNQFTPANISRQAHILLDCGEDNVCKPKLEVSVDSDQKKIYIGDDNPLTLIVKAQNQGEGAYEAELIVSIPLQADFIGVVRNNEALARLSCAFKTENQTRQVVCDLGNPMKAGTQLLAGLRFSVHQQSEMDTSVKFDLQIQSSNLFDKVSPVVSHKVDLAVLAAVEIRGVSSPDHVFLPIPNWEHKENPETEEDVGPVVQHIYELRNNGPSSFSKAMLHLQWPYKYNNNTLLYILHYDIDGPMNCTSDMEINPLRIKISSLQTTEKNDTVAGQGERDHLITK
Chain of Integrin alpha-V/beta-5 (P06756 891-1048 limits assumed): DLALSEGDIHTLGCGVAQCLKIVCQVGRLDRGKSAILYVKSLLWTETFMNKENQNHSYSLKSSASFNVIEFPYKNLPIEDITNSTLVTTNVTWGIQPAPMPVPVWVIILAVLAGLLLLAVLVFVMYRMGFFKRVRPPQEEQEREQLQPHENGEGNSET
Chain of Integrin alpha-V/beta-5 (P18084 24-799 limits assumed): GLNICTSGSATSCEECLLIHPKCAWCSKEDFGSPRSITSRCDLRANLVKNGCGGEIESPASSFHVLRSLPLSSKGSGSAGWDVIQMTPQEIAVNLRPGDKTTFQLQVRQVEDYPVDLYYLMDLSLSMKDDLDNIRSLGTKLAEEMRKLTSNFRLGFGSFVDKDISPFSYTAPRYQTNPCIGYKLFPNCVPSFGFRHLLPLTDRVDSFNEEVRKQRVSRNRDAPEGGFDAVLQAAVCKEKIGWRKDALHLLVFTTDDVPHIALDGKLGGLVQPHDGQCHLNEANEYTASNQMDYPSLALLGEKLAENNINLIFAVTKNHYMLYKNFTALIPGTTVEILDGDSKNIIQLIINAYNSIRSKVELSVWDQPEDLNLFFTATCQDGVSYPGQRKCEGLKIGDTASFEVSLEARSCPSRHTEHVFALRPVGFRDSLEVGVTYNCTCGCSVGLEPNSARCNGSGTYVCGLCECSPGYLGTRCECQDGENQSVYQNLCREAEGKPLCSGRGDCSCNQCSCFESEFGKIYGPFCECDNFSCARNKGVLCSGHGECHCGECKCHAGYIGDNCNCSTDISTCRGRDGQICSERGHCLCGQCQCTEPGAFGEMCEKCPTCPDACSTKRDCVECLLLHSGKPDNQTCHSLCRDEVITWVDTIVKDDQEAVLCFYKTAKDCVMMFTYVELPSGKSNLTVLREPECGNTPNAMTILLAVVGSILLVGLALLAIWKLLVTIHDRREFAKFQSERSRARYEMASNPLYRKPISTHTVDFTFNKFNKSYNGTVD
T1 sequence (P05106 27-788 limits assumed): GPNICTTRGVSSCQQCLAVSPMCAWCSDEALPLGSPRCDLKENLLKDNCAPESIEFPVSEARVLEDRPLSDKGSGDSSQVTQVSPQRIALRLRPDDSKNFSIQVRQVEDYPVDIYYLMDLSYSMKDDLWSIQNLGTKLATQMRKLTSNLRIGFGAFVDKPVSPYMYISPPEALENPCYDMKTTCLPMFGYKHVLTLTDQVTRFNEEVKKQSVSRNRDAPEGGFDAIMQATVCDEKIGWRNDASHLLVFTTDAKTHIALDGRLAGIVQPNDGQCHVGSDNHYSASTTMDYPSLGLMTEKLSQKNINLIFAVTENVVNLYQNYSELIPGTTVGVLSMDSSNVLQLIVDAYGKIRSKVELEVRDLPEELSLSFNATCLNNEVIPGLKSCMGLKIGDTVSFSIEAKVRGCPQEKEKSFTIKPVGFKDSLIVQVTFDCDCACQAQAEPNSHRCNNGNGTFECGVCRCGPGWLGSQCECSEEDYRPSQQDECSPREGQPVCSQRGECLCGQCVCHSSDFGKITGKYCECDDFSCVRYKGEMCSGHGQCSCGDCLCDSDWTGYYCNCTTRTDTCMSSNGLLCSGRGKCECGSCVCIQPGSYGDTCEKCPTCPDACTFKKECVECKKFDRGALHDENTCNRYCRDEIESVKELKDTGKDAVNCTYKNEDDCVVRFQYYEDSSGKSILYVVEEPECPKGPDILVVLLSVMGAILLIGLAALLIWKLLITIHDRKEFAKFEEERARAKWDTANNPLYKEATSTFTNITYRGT
T1 sequence (P06756 31-889 limits assumed): as the sequence (P06756 31-889 limits assumed) above
T1 sequence (P06756 891-1048 limits assumed): as the sequence (P06756 891-1048 limits assumed) above
Chain of Integrin alpha-IIb/beta-3 (P05106 27-788 limits assumed): as the sequence (P05106 27-788 limits assumed) above
Chain of Integrin alpha-IIb/beta-3 (P08514 32-887 limits assumed): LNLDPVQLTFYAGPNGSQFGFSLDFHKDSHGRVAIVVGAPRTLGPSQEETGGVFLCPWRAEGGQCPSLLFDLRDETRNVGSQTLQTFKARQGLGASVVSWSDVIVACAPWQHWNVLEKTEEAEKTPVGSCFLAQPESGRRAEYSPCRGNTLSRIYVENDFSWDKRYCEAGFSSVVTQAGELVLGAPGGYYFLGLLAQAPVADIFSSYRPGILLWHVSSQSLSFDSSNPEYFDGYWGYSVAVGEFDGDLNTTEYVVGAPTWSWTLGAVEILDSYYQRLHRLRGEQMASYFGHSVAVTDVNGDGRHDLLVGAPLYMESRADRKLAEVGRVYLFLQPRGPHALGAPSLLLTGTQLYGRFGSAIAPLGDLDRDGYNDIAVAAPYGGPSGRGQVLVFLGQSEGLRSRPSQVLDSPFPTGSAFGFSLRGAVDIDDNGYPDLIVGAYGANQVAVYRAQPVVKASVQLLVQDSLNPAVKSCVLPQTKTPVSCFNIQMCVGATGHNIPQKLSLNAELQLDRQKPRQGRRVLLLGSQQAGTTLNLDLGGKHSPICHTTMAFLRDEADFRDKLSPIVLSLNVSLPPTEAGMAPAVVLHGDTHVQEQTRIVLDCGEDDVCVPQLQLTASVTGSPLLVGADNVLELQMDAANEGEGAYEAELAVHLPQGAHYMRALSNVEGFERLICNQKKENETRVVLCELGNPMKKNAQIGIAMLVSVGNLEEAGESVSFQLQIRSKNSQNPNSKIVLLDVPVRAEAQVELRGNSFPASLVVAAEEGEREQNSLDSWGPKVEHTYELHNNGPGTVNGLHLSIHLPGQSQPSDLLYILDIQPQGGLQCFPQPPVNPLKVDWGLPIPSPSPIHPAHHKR
Chain of Integrin alpha-IIb/beta-3 (P08514 891-1039 limits assumed): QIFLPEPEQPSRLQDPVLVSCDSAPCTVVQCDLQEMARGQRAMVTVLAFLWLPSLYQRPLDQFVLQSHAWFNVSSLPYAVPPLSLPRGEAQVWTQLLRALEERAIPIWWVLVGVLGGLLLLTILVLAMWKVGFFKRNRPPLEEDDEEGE
Chain of Integrin alpha-V/beta-1 (P05556 21-798 limits assumed): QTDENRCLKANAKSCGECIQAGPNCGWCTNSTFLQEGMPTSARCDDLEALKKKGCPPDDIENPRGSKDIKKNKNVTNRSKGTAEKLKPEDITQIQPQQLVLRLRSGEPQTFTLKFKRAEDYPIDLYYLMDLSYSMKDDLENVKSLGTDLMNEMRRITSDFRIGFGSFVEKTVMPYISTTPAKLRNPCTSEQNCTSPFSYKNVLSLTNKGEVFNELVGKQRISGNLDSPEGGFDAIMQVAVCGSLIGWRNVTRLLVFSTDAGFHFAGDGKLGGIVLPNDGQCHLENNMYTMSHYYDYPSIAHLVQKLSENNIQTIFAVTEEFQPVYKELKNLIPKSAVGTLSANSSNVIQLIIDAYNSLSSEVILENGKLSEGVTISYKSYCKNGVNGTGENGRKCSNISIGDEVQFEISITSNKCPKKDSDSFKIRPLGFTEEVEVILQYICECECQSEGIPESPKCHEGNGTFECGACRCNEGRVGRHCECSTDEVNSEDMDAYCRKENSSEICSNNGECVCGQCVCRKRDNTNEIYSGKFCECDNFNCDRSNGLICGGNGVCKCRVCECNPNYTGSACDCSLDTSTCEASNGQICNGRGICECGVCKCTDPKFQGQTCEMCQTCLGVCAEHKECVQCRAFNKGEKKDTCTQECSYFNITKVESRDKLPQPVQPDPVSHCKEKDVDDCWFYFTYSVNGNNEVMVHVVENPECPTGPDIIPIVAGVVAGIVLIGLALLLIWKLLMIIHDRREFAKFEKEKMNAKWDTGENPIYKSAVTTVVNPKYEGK
Chain of Integrin alpha-V/beta-1 (P06756 31-889 limits assumed): as the sequence (P06756 31-889 limits assumed) above
Chain of Integrin alpha-V/beta-1 (P06756 891-1048 limits assumed): as the sequence (P06756 891-1048 limits assumed) above

SMILES | IC50 [1] | IC50 [2] | IC50 [3] | IC50 [4] | IC50 [5]
NC(N)=Nc1cccc(C(=O)Nc2ccc(CCC(=O)O)cc2)c1 | 758 nM | 10.9 nM | 135 nM |  | 
Cc1cc(/C=C/C(=O)O)cc(C)c1NC(=O)c1cccc(NC(=N)N)c1 | 2070 nM | 21 nM | 116 nM |  | 
CC(C)(C)NC(=O)NC(Cc1ccc(NC(=O)c2cccc(N=C(N)N)c2)cc1)C(=O)O (stereo not drawn) | 4.8 nM | 2.9 nM | 3 nM |  | 3.2 nM
CC(=O)NC(Cc1ccc(NC(=O)c2cccc(N=C(N)N)c2)cc1)C(=O)O (stereo not drawn) | 16 nM | 2.6 nM | 40 nM |  | 
O=C(O)/C=C/c1ccc(NC(=O)c2cccc(NC3=NCCCN3)c2)cc1 | 219 nM | 1.8 nM | 7.6 nM | 528 nM | 2 nM
COc1cc(/C=C/C(=O)O)ccc1NC(=O)c1cccc(NC(=N)N)c1 |  |  |  | 38 nM | 10.3 nM
COc1cc(NC(=O)c2cccc(NC(=N)N)c2)ccc1CC(NC(=O)OC(C)C)C(=O)O (stereo not drawn) | 1.1 nM | 0.32 nM | 0.38 nM |  | 1.1 nM
N=C(N)Nc1cccc(C(=O)Nc2ccc(/C=C/C(=O)O)c(Cl)c2)c1 |  |  |  | 45 nM | 23 nM
O=C(O)CCc1ccc(NC(=O)c2cccc(NC3=NCCCN3)c2)cc1C(=O)O |  |  |  |  | 6.1 nM
O=C(O)/C=C/c1ccc(NC(=O)c2cccc(NC3=NCCCN3)c2)c(Cl)c1 | 85 nM | 1.7 nM | 13 nM |  | 
Cc1cc(/C=C/C(=O)O)ccc1NC(=O)c1cccc(NC2=NCCCN2)c1 | 60 nM | 1.7 nM | 9.6 nM |  | 
COc1cc(NC(=O)c2cccc(NC3=NCCCN3)c2)ccc1/C=C/C(=O)O |  |  |  | 661 nM | 2.2 nM
N=C(N)Nc1cccc(C(=O)Nc2ccc(C3CC3C(=O)O)cc2)c1 (stereo not drawn) | 339 nM | 65 nM | 149 nM |  | 31 nM
COc1cc(NC(=O)c2cccc(NC3=NCCCN3)c2)ccc1OCC(=O)O | 82 nM | 1.7 nM | 29 nM |  | 0.43 nM
COc1cc(NC(=O)c2cccc(N=C(N)N)c2)ccc1OCC(=O)O | 222 nM | 4.3 nM | 102 nM |  | 3.2 nM
N=C(N)Nc1cccc(C(=O)Nc2ccc(OCC(=O)O)cc2)c1 | 351 nM | 11.9 nM | 144 nM |  | 
COc1cc(NC(=O)c2cccc(NC3=NCCCN3)c2)ccc1CCC(=O)O | 162 nM | 5.6 nM | 16.6 nM |  | 5.8 nM

More lines, now with the values ahead:

IC50 [1] | IC50 [2] | IC50 [3] | IC50 [4] | IC50 [5] | SMILES
507 nM | 3.8 nM | 26 nM | 641 nM | 3.9 nM | O=C(O)/C=C/c1ccc(NC(=O)c2cccc(NC3=NCCCN3)c2)cc1Cl
320 nM | 40 nM | 69 nM |  |  | O=C(Nc1ccc(C2CC2C(=O)O)cc1)c1cccc(NC2=NCCCN2)c1 (stereo not drawn)
 |  |  | 12.5 nM | 0.27 nM | O=C(Nc1ccc(CC(NS(=O)(=O)c2ccccc2)C(=O)O)cc1)c1cccc(NC2=NCCN2)c1 (stereo not drawn)
109 nM | 13.1 nM | 39 nM |  |  | N=C(N)Nc1cccc(C(=O)Nc2ccc(/C=C/C(=O)O)cc2)c1
18.3 nM | 0.2 nM | 8.1 nM |  |  | N=C(N)Nc1cccc(C(=O)Nc2ccc(CC(NS(=O)(=O)c3ccccc3)C(=O)O)cc2)c1 (stereo not drawn)
6.7 nM | 2.5 nM | 1 nM |  |  | CC(C)(C)OC(=O)NC(Cc1ccc(NC(=O)c2cccc(N=C(N)N)c2)cc1)C(=O)O (stereo not drawn)
17.7 nM | 0.94 nM | 0.89 nM |  |  | CC(C)OC(=O)NC(Cc1ccc(NC(=O)c2cccc(NC3=NC(=O)CN3)c2)cc1)C(=O)O (stereo not drawn)
 |  |  | 25000 nM |  | N=C(N)Nc1cccc(C(=O)Nc2cc(Cl)c(/C=C/C(=O)O)c(Cl)c2)c1
29 nM | 0.98 nM | 3.1 nM |  |  | CS(=O)(=O)NC(Cc1ccc(NC(=O)c2cccc(N=C(N)N)c2)cc1)C(=O)O (stereo not drawn)
0.47 nM | 2.6 nM | 0.76 nM | 22 nM |  | CC(C)OC(=O)NC(Cc1ccc(NC(=O)c2cccc(N=C(N)N)c2)cc1)C(=O)O (stereo not drawn)
426 nM | 5.9 nM | 60 nM |  |  | N=C(N)Nc1cccc(C(=O)Nc2ccc(/C=C/C(=O)O)cc2Cl)c1
264 nM | 3 nM | 29 nM |  |  | Cc1cc(/C=C/C(=O)O)cc(C)c1NC(=O)c1cccc(NC2=NCCN2)c1
 |  |  |  | 1.2 nM | N=C(N)Nc1cccc(C(=O)Nc2ccc(/C=C/C(=O)O)c(C(=O)O)c2)c1
505 nM | 19.4 nM | 49 nM |  |  | Cc1cc(NC(=O)c2cccc(NC(=N)N)c2)ccc1/C=C/C(=O)O
10.4 nM | 0.12 nM | 0.96 nM | 6 nM | 0.11 nM | O=C(Nc1ccc(CC(NS(=O)(=O)c2ccccc2)C(=O)O)cc1)c1cccc(NC2=NCCCN2)c1 (stereo not drawn)
426 nM | 9.6 nM | 45 nM |  |  | N=C(N)Nc1cccc(C(=O)Nc2ccc(/C=C/C(=O)O)cc2F)c1
 |  |  |  | 3 nM | CCc1cc(/C=C/C(=O)O)ccc1NC(=O)c1cccc(NC(=N)N)c1
0.68 nM | 0.35 nM | 0.41 nM | 1000 nM | 0.16 nM | COc1cc(NC(=O)c2cccc(NC3=NCCCN3)c2)ccc1CC(NC(=O)OC(C)C)C(=O)O (stereo not drawn)
